According to patent US12187701B2, “Taire family kinase inhibitors and uses thereof” (Dana-Farber Cancer Institute, Inc., priority 2018, dated 2025):

Tests used:
Cdk14/CycY = Cdk14/CycY (Homo sapiens (Human), UniProt O94921); assay: Lanthascreen Eu kinase binding assay for Cdk14/CycY with 30 minute pre-incubation; conditions: 30 minute pre-incubation of kinase with compound; read-out: IC50 CDK14 binding by Lanthascreen
Procedure: Lanthascreen Eu kinase binding assays were conducted for Cdk14/CycY largely as performed in the commercial assay service by Life Technologies, but included a 30 minute pre-incubation step of the kinase with candidate compounds to facilitate covalent bond formation.

HCT116 cells = assay: Antiproliferation assay, Cell Titer Glo, 72 hours; assay type: cell-based; conditions: Homo sapiens, HCT-116, 72 h
Procedure: HCT116 cells were plated in 384-well plates at 750 cells/well in 50 ul fresh media (McCoy's 5A+10% FBS+1% Penn/Strep) and treated with 0.1 μl candidate compounds in four-fold dilution series using the Janus pinner. Cells were incubated with compounds for 72 hours in 37° C. 5% CO2. Anti-proliferative effects of these compounds were assessed 72 hours after compound addition using Cell Titer Glo (Promega cat #G7571) as described in product manual by luminescence measurements using an Envision platereader. All proliferation assays were performed in biological quadruplicate. IC50 values were determined using a non-linear regression curve fit in GraphPad Prism 6.

Cdk14/CycY, sequence (O94921 whole entry): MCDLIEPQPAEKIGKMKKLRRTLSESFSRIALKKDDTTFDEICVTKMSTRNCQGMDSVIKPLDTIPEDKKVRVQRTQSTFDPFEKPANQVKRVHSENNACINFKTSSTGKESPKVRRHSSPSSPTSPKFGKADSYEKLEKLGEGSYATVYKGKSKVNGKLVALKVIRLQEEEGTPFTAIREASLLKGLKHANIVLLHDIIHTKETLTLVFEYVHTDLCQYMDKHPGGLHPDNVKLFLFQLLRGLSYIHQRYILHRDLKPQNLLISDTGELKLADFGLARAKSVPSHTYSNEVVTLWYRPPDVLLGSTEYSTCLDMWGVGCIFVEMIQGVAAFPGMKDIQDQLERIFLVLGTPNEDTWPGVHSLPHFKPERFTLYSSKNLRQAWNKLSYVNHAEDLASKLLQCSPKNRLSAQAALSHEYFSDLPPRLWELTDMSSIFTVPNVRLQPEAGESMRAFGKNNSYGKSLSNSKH
Cdk14/CycY, sequence (Q8ND76 whole entry partner): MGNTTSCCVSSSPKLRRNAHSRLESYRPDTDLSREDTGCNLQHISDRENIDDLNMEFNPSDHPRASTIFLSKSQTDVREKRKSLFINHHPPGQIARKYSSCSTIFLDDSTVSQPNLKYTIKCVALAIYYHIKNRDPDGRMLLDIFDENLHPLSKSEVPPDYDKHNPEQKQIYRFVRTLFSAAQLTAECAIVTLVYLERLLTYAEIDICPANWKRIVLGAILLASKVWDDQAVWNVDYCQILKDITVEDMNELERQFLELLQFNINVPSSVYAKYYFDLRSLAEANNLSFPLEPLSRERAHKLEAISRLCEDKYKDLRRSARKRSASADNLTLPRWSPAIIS

| SMILES | IC50 (Cdk14/CycY) [nM] | IC50 (HCT116 cells) [nM] |
| --- | --- | --- |
| C=CC(=O)Nc1ccc(S(=O)(=O)N2CCC[C@@H](NC(=O)c3n[nH]cc3NC(=O)c3c(Cl)cccc3Cl)C2)cc1 [FMF-04-056-1, (R)—N-(1-((4-acrylamidophenyl)sulfonyl)piperidin-3-yl)-4-(2,6-dichlorobenzamido)-1H-pyrazole-3-carboxamide] | > 1000 | > 10000 |
| C=CC(=O)Nc1cccc(S(=O)(=O)N2CCC[C@@H](NC(=O)c3n[nH]cc3NC(=O)c3c(Cl)cccc3Cl)C2)c1 [FMF-04-057-1, (R)—N-(1-((3-acrylamidophenyl)sulfonyl)piperidin-3-yl)-4-(2,6-dichlorobenzamido)-1H-pyrazole-3-carboxamide] | 836 | > 10000 |
| CN(C)C/C=C/C(=O)Nc1ccc(C(=O)N2CCC[C@@H](NC(=O)c3n[nH]cc3NC(=O)c3c(Cl)cccc3Cl)C2)cc1 [FMF-04-058-2, (R,E)-4-(2,6-dichlorobenzamido)-N-(1-(4-(4-(dimethylamino)but-2-enamido)benzoyl)piperidin-3-yl)-1H-pyrazole-3-carboxamide] | > 1000 | 726 |
| CN(C)C/C=C/C(=O)Nc1cccc(C(=O)N2CCC[C@@H](NC(=O)c3n[nH]cc3NC(=O)c3c(Cl)cccc3Cl)C2)c1 [FMF-04-059-2, (R,E)-4-(2,6-dichlorobenzamido)-N-(1-(3-(4-(dimethylamino)but-2-enamido)benzoyl)piperidin-3-yl)-1H-pyrazole-3-carboxamide] | > 1000 | > 10000 |
| C=CC(=O)Nc1cccc(S(=O)(=O)N2CCC(NC(=O)c3nscc3NC(=O)c3c(Cl)cccc3Cl)CC2)c1 [FMF-04-089-1, N-(1-((3-acrylamidophenyl)sulfonyl)piperidin-4-yl)-4-(2,6-dichlorobenzamido)isothiazole-3-carboxamide] | > 1000 | 563 |
| C=CC(=O)Nc1cccc(S(=O)(=O)N2CCC(NC(=O)c3c(NC(=O)c4c(Cl)cccc4Cl)cnn3C)CC2)c1 [FMF-04-120-1, N-(1-((3-acrylamidophenyl)sulfonyl)piperidin-4-yl)-4-(2,6-dichlorobenzamido)-1-methyl-1H-pyrazole-5-carboxamide] | > 1000 | 2420 |
| CN(C)C/C=C/C(=O)Nc1cccc(CN2CCC(NC(=O)c3n[nH]cc3NC(=O)c3c(F)cccc3F)CC2)c1 [FMF-04-160-2, (E)-4-(2,6-difluorobenzamido)-N-(1-(3-(4-(dimethylamino)but-2-enamido)benzyl)piperidin-4-yl)-1H-pyrazole-3-carboxamide] | 223 | 437 |
| CN(C)C/C=C/C(=O)Nc1cccc(C(=O)Nc2cccc(NC(=O)c3n[nH]cc3NC(=O)c3c(Cl)cccc3Cl)c2)c1 [FMF-04-196-1, (E)-4-(2,6-dichlorobenzamido)-N-(3-(3-(4-(dimethylamino)but-2-enamido)benzamido)phenyl)-1H-pyrazole-3-carboxamide] | 41 | 366 |
| COc1cc(OC)c(C(=O)Nc2c[nH]nc2C(=O)NC2CCN(S(=O)(=O)c3cccc(NC(=O)/C=C/CN(C)C)c3)CC2)c(OC)c1 [FMF-05-028-2, (E)-N-(1-((3-(4-(dimethylamino)but-2-enamido)phenyl)sulfonyl)piperidin-4-yl)-4-(2,4,6-trimethoxybenzamido)-1H-pyrazole-3-carboxamide] | 221 | > 10000 |
| C=CC(=O)Nc1cccc(S(=O)(=O)N2CC[C@H](NC(=O)c3n[nH]cc3NC(=O)c3c(Cl)cccc3Cl)C2)c1 [FMF-05-068-1, (S)—N-(1-((3-acrylamidophenyl)sulfonyl)pyrrolidin-3-yl)-4-(2,6-dichlorobenzamido)-1H-pyrazole-3-carboxamide] | 450 | 6200 |
| CN(C)C/C=C/C(=O)Nc1cccc(S(=O)(=O)N2CC[C@H](NC(=O)c3n[nH]cc3NC(=O)c3c(Cl)cccc3Cl)C2)c1 [FMF-05-068-2, (S,E)-4-(2,6-dichlorobenzamido)-N-(1-((3-(4-(dimethylamino)but-2-enamido)phenyl)sulfonyl)pyrrolidin-3-yl)-1H-pyrazole-3-carboxamide] | 308 | > 10000 |
| C=CC(=O)Nc1cccc(CN2CC[C@H](NC(=O)c3n[nH]cc3NC(=O)c3c(Cl)cccc3Cl)C2)c1 [FMF-05-069-1, (S)—N-(1-(3-acrylamidobenzyl)pyrrolidin-3-yl)-4-(2,6-dichlorobenzamido)-1H-pyrazole-3-carboxamide] | 150 | 27 |

Now from value to compound:

| IC50 (Cdk14/CycY) [nM] | IC50 (HCT116 cells) [nM] | SMILES |
| --- | --- | --- |
| 609 | 6 | C=CC(=O)Nc1ccc(C(=O)Nc2cccc(NC(=O)c3n[nH]cc3NC(=O)c3c(Cl)cccc3Cl)c2)cc1 [FMF-03-203-1, N-(3-(4-acrylamidobenzamido)phenyl)-4-(2,6-dichlorobenzamido)-1H-pyrazole-3-carboxamide] |
| 72 | 24 | CN(C)C/C=C/C(=O)Nc1ccc(C(=O)Nc2cccc(NC(=O)c3n[nH]cc3NC(=O)c3c(Cl)cccc3Cl)c2)cc1 [FMF-03-204-1, (E)-4-(2,6-dichlorobenzamido)-N-(3-(4-(4-(dimethylamino)but-2-enamido)benzamido)phenyl)-1H-pyrazole-3-carboxamide] |
| 308 | 31 | C=CC(=O)Nc1cccc(C(=O)Nc2cccc(NC(=O)c3n[nH]cc3NC(=O)c3c(Cl)cccc3Cl)c2)c1 [FMF-04-011-1, N-(3-(3-acrylamidobenzamido)phenyl)-4-(2,6-dichlorobenzamido)-1H-pyrazole-3-carboxamide] |
| 169 | 8 | C=CC(=O)Nc1ccc(C(=O)Nc2ccc(NC(=O)c3n[nH]cc3NC(=O)c3c(Cl)cccc3Cl)cc2)cc1 [FMF-04-012-1] |
| > 1000 | 9840 | CN(C)C/C=C/C(=O)Nc1cccc(S(=O)(=O)N2CCC[C@@H](NC(=O)c3n[nH]cc3NC(=O)c3c(Cl)cccc3Cl)C2)c1 [FMF-04-057-2, (R,E)-4-(2,6-dichlorobenzamido)-N-(1-((3-(4-(dimethylamino)but-2-enamido)phenyl)sulfonyl)piperidin-3-yl)-1H-pyrazole-3-carboxamide] |
| > 1000 | > 10000 | C=CC(=O)Nc1ccc(C(=O)N2CCC[C@@H](NC(=O)c3n[nH]cc3NC(=O)c3c(Cl)cccc3Cl)C2)cc1 [FMF-04-058-1, (R)—N-(1-(4-acrylamidobenzoyl)piperidin-3-yl)-4-(2,6-dichlorobenzamido)-1H-pyrazole-3-carboxamide] |
| > 1000 | 4040 | C=CC(=O)Nc1cccc(C(=O)N2CCC[C@@H](NC(=O)c3n[nH]cc3NC(=O)c3c(Cl)cccc3Cl)C2)c1 [FMF-04-059-1, (R)—N-(1-(3-acrylamidobenzoyl)piperidin-3-yl)-4-(2,6-dichlorobenzamido)-1H-pyrazole-3-carboxamide] |
| 1160 | 320 | Cc1cc(NC(=O)c2cccc(NC(=O)/C=C/CN(C)C)c2)ccc1NC(=O)c1n[nH]cc1NC(=O)c1c(Cl)cccc1Cl [FMF-04-085-2, (E)-4-(2,6-dichlorobenzamido)-N-(4-(3-(4-(dimethylamino)but-2-enamido)benzamido)-2-methylphenyl)-1H-pyrazole-3-carboxamide] |
| > 1000 | > 10000 | C=CC(=O)Nc1cccc(S(=O)(=O)N2CCC(N(C)C(=O)c3n[nH]cc3NC(=O)c3c(Cl)cccc3Cl)CC2)c1 [FMF-04-086-1, N-(1-((3-acrylamidophenyl)sulfonyl)piperidin-4-yl)-4-(2,6-dichlorobenzamido)-N-methyl-1H-pyrazole-3-carboxamide] |
| 198 | 11 | C=CC(=O)Nc1cccc(CN2CCC(NC(=O)c3n[nH]cc3NC(=O)c3c(Cl)cc(Cl)cc3Cl)CC2)c1 [FMF-04-158-1, N-(1-(3-acrylamidobenzyl)piperidin-4-yl)-4-(2,4,6-trichlorobenzamido)-1H-pyrazole-3-carboxamide] |
| > 1000 | > 10000 | C=CC(=O)Nc1cccc(S(=O)(=O)N2CCC(NC(=O)c3n[nH]c(C)c3NC(=O)c3c(Cl)cccc3Cl)CC2)c1 [FMF-04-181-1, N-(1-((3-acrylamidophenyl)sulfonyl)piperidin-4-yl)-4-(2,6-dichlorobenzamido)-5-methyl-1H-pyrazole-3-carboxamide] |
| 31 | 1.9 | C=CC(=O)Nc1cccc(CN2CCC(NC(=O)c3n[nH]cc3NC(=O)c3c(F)cc(F)cc3F)CC2)c1 [FMF-04-200-1, N-(1-(3-acrylamidobenzyl)piperidin-4-yl)-4-(2,4,6-trifluorobenzamido)-1H-pyrazole-3-carboxamide] |
| 315 | 382 | C=CC(=O)Nc1cccc(S(=O)(=O)N2CCC(NC(=O)c3n[nH]cc3NC(=O)c3ccccc3)CC2)c1 [FMF-05-027-1, N-(1-((3-acrylamidophenyl)sulfonyl)piperidin-4-yl)-4-benzamido-1H-pyrazole-3-carboxamide] |
| > 10000 | 467 | C=CC(=O)Nc1cccc(S(=O)(=O)N2CC[C@@H](NC(=O)c3n[nH]cc3NC(=O)c3c(Cl)cccc3Cl)C2)c1 [FMF-05-065-1, (R)-N-(1-((3-acrylamidophenyl)sulfonyl)pyrrolidin-3-yl)-4-(2,6-dichlorobenzamido)-1H-pyrazole-3-carboxamide] |
| > 10000 | 3000 | C=CC(=O)Nc1ccc(S(=O)(=O)N2CC[C@@H](NC(=O)c3n[nH]cc3NC(=O)c3c(Cl)cccc3Cl)C2)cc1 [FMF-05-066-1, (R)—N-(1-((4-acrylamidophenyl)sulfonyl)pyrrolidin-3-yl)-4-(2,6-dichlorobenzamido)-1H-pyrazole-3-carboxamide] |
